Data taken from ChEMBL document CHEMBL3885861, “Open TG-GATES”.

Species on record: Rattus norvegicus
Test: Open TG-GATES - Regimen: Daily Repeat
Format: toxicity, organism-based, Sprague-Dawley
Set-up: regimen Daily Repeat, gender Male, age 6 weeks
Conditions: in vivo, po, 60 mg/kg, route gavage, dose level High; for APTT / Bas / Eos / Fbg / Hb / Ht / Lym / MCH / MCHC / MCV / Mono / Neu / PT / Plat / RBC / Ret / WBC: tissue Blood; for LIVER: tissue Liver; for A/G / ALP / ALT / AST / BUN / CRE / Ca / Cl / DBIL / GLC / IP / K / LDH / Na / PL / RALB / TBIL / TC / TG / TP / gamma-GTP: tissue Plasma

O=[N+]([O-])c1ccc(O)c([N+](=O)[O-])c1 [2,4-DINITROPHENOL]
TERMINAL_BW (72 h, time 3 day): 245.9 g
APTT (72 h, time 3 day): 15.9 s
Bas (72 h, time 3 day): 0%
Eos (72 h, time 3 day): 1%
Fbg (72 h, time 3 day): 275.4 mg/dL
Hb (72 h, time 3 day): 13.3 g/dL
Ht (72 h, time 3 day): 39.2%
Lym (72 h, time 3 day): 74%
MCH (72 h, time 3 day): 22 pg
MCHC (72 h, time 3 day): 33.9%
MCV (72 h, time 3 day): 64.9 fL
Mono (72 h, time 3 day): 7%
Neu (72 h, time 3 day): 18.4%
PT (72 h, time 3 day): 11.7 s
Plat (72 h, time 3 day): 139 x10_4/uL
RBC (72 h, time 3 day): 604.8 x10_4/ul
Ret (72 h, time 3 day): 9.7%
WBC (72 h, time 3 day): 124 x10_2/uL
LIVER (72 h, time 3 day): 12.8 g
A/G (72 h, time 3 day): 2.2
ALP (72 h, time 3 day): 1454.2 IU/L
ALT (72 h, time 3 day): 31.8 IU/L
AST (72 h, time 3 day): 66.2 IU/L
BUN (72 h, time 3 day): 17.8 mg/dL
CRE (72 h, time 3 day): 0.4 mg/dL
Ca (72 h, time 3 day): 11.4 mg/dL
Cl (72 h, time 3 day): 104.6 meq/L
DBIL (72 h, time 3 day): 0.014 mg/dL
GLC (72 h, time 3 day): 169.2 mg/dL
IP (72 h, time 3 day): 6.6 mg/dL
K (72 h, time 3 day): 5 meq/L
LDH (72 h, time 3 day): 98.2 IU/L
Na (72 h, time 3 day): 137.8 meq/L
PL (72 h, time 3 day): 155.2 mg/dL
RALB (72 h, time 3 day): 3.8 g/dL
TBIL (72 h, time 3 day): 0.02 mg/dL
TC (72 h, time 3 day): 82 mg/dL
TG (72 h, time 3 day): 125 mg/dL
TP (72 h, time 3 day): 5.6 g/dL
gamma-GTP (72 h, time 3 day): 0.2 IU/L
TERMINAL_BW ([…], time 7 day): 262.8 g
TERMINAL_BW ([…], time 14 day): 327.9 g
TERMINAL_BW ([…], time 28 day): 396.2 g
APTT ([…], time 7 day): 16.6 s
Bas ([…], time 7 day): 0%
Eos ([…], time 7 day): 1.4%
Fbg ([…], time 7 day): 263.8 mg/dL
Hb ([…], time 7 day): 14.2 g/dL
Ht ([…], time 7 day): 41.9%
Lym ([…], time 7 day): 78.4%
MCH ([…], time 7 day): 21.5 pg
MCHC ([…], time 7 day): 33.9%
MCV ([…], time 7 day): 63.4 fL
Mono ([…], time 7 day): 6.4%
Neu ([…], time 7 day): 14.6%
PT ([…], time 7 day): 11.9 s
Plat ([…], time 7 day): 128.6 x10_4/uL
RBC ([…], time 7 day): 662.2 x10_4/ul
Ret ([…], time 7 day): 6.1%
WBC ([…], time 7 day): 126.8 x10_2/uL
APTT ([…], time 14 day): 16.3 s
Bas ([…], time 14 day): 0%
Eos ([…], time 14 day): 0.8%
Fbg ([…], time 14 day): 263.8 mg/dL
Hb ([…], time 14 day): 14.3 g/dL
Ht ([…], time 14 day): 42.2%
Lym ([…], time 14 day): 74.8%
MCH ([…], time 14 day): 21.6 pg
MCHC ([…], time 14 day): 33.9%
MCV ([…], time 14 day): 63.5 fL
Mono ([…], time 14 day): 10.4%
Neu ([…], time 14 day): 14.2%
PT ([…], time 14 day): 12.2 s
Plat ([…], time 14 day): 124 x10_4/uL
RBC ([…], time 14 day): 665.2 x10_4/ul
Ret ([…], time 14 day): 4.2%
WBC ([…], time 14 day): 114.6 x10_2/uL
APTT ([…], time 28 day): 16.4 s
Bas ([…], time 28 day): 0%
Eos ([…], time 28 day): 1%
Fbg ([…], time 28 day): 294.4 mg/dL
Hb ([…], time 28 day): 15.6 g/dL
Ht ([…], time 28 day): 46.4%
Lym ([…], time 28 day): 73.4%
MCH ([…], time 28 day): 20.5 pg
MCHC ([…], time 28 day): 33.6%
MCV ([…], time 28 day): 60.9 fL
Mono ([…], time 28 day): 6.6%
Neu ([…], time 28 day): 18.8%
PT ([…], time 28 day): 12 s
Plat ([…], time 28 day): 105.6 x10_4/uL
RBC ([…], time 28 day): 763.2 x10_4/ul
Ret ([…], time 28 day): 2.9%
WBC ([…], time 28 day): 117.4 x10_2/uL
LIVER ([…], time 7 day): 13.7 g
LIVER ([…], time 14 day): 17.8 g
LIVER ([…], time 28 day): 21.6 g
A/G ([…], time 7 day): 2.3
ALP ([…], time 7 day): 1317.4 IU/L
ALT ([…], time 7 day): 39.4 IU/L
AST ([…], time 7 day): 72 IU/L
BUN ([…], time 7 day): 17 mg/dL
CRE ([…], time 7 day): 0.3 mg/dL
Ca ([…], time 7 day): 11.5 mg/dL
Cl ([…], time 7 day): 104.2 meq/L
DBIL ([…], time 7 day): 0.014 mg/dL
GLC ([…], time 7 day): 167.8 mg/dL
IP ([…], time 7 day): 7.2 mg/dL
K ([…], time 7 day): 4.8 meq/L
LDH ([…], time 7 day): 116.8 IU/L
Na ([…], time 7 day): 140.2 meq/L
PL ([…], time 7 day): 150.4 mg/dL
RALB ([…], time 7 day): 4 g/dL
TBIL ([…], time 7 day): 0.016 mg/dL
TC ([…], time 7 day): 77.6 mg/dL
TG ([…], time 7 day): 115 mg/dL
TP ([…], time 7 day): 5.7 g/dL
gamma-GTP ([…], time 7 day): 0.8 IU/L
A/G ([…], time 14 day): 2.2
ALP ([…], time 14 day): 1140.6 IU/L
ALT ([…], time 14 day): 38 IU/L
AST ([…], time 14 day): 79.2 IU/L
BUN ([…], time 14 day): 18.6 mg/dL
CRE ([…], time 14 day): 0.4 mg/dL
Ca ([…], time 14 day): 11.8 mg/dL
Cl ([…], time 14 day): 104.6 meq/L
DBIL ([…], time 14 day): 0.014 mg/dL
GLC ([…], time 14 day): 167.8 mg/dL
IP ([…], time 14 day): 6 mg/dL
K ([…], time 14 day): 4.1 meq/L
LDH ([…], time 14 day): 134.2 IU/L
Na ([…], time 14 day): 138 meq/L
PL ([…], time 14 day): 151.2 mg/dL
RALB ([…], time 14 day): 4.1 g/dL
TBIL ([…], time 14 day): 0.02 mg/dL
TC ([…], time 14 day): 67.4 mg/dL
TG ([…], time 14 day): 208.6 mg/dL
TP ([…], time 14 day): 6 g/dL
gamma-GTP ([…], time 14 day): 0 IU/L
A/G ([…], time 28 day): 1.9
ALP ([…], time 28 day): 925 IU/L
ALT ([…], time 28 day): 45.6 IU/L
AST ([…], time 28 day): 93.8 IU/L
BUN ([…], time 28 day): 20.8 mg/dL
CRE ([…], time 28 day): 0.5 mg/dL
Ca ([…], time 28 day): 11.4 mg/dL
Cl ([…], time 28 day): 105 meq/L
DBIL ([…], time 28 day): 0.018 mg/dL
GLC ([…], time 28 day): 167.6 mg/dL
IP ([…], time 28 day): 5 mg/dL
K ([…], time 28 day): 4.2 meq/L
LDH ([…], time 28 day): 160 IU/L
Na ([…], time 28 day): 140.2 meq/L
PL ([…], time 28 day): 144.4 mg/dL
RALB ([…], time 28 day): 4.1 g/dL
TBIL ([…], time 28 day): 0.026 mg/dL
TC ([…], time 28 day): 69 mg/dL
TG ([…], time 28 day): 177.8 mg/dL
TP ([…], time 28 day): 6.3 g/dL
gamma-GTP ([…], time 28 day): 0.6 IU/L
